The values that follow come from patent US20160376240A1, “6 Phenyl or 6 Pyridin 3 YL Indazole Derivatives and Methods of Use” (ABBVIE INC., priority 2014, published 2016).

Molecules are shown by their SMILES.

What is called IC50 is the point on the concentration scale where inhibition reaches its midpoint. High values mean a need for much substance, low ones inhibition by little substance.

The test has as its target T1, TrkA (Homo sapiens, UniProt P04629).
T1 construct: purchased Invitrogen PV3144
The experiment in a line: TrkA kinase inhibition, HTRF assay. The class given is biochemical. Conditions: LCK peptide substrate 125 nM, TrkA 2-10 nM pre-incubated with ATP 200 μM. Here is the method:
TrkA, TrkB, and TrkC enzymes were obtained from Invitrogen (as catalog numbers PV3144, PV3616, and PV3617, respectively). The ability of a compound to inhibit the enzymatic activity of the TrkA, TrkB, and TrkC enzymes was determined in separate assays. Enzyme activity was measured in an HTRF® (homogeneous time resolved fluorescence) assay, which detects enzymatic phosphorylation of a biotinylated synthetic peptide substrate (an LCK peptide analog, biotin-ahx-GAEEEIYAAFFA, from Genemed Synthesis). Phosphorylation is assessed by HTRF® in the presence of an anti-phosphotyrosine antibody conjugated to Eu^3+ cryptate (Cisbio) as donor fluorophore, and streptavidin conjugated to allophycocyanin (ProZyme) as acceptor fluorophore. The HTRF® signal was detected at two different wavelengths (620 nm and 665 nm) which were used to calculate the fluorescence ratio.
Each enzyme was titrated to a concentration optimized to ensure accurate measurement of the initial reaction rate. To allow the Trk enzymes to undergo activation and auto-phosphorylation, a 20 minute pre-incubation with ATP was carried out (at twice the final targeted enzyme and ATP concentration) prior to addition of test compound and the peptide substrate.
TrkA in vitro assays were performed by pre-incubating TrkA (2-10 nM) with ATP (200 μM) for 20 minutes at ambient temperature in 50 mM HEPES pH 7.4, 10 mM MgCl2, 2 mM MnCl2, 100 μM Na3VO4, 1 mM dithiothreitol, 0.01% BSA (bovine serum albumin). Then, to the activated Trk enzyme mixture was added the test compound in 2% dimethyl sulfoxide. After 10 minutes, the peptide substrate (125 nM) was added. After 1 hour, enzyme reactions were terminated by addition of equal reaction volumes of detection/stop reagent (containing 0.2 μg/mL anti-phosphotyrosine monoclonal antibody labeled with europium from Cisbio (catalog# PT66-K), and 4 μg/mL PhycoLink® Streptavidin-Allophycocyanin conjugate from ProZyme (catalog# PJ25S) in 60 mM EDTA in 40 mM HEPES pH 7.4, 480 mM KF, 0.01% Tween® 20 and 0.1% BSA bovine serum albumin) Reaction plates were stored at 4° C. overnight before reading the fluorescence ratio signal on a PerkinElmer EnVision™ fluorescence detector. Individual reaction wells were stopped at time points to obtain reaction rates. The test inhibitor compounds were assayed in duplicate, at half-log serial dilutions over a range of concentrations (e.g. starting at 50 μM or 5 μM as the high compound concentration). The percent Trk enzyme inhibition was calculated from the initial rates of the inhibited reactions relative to the uninhibited control. IC50 values were calculated by fitting the inhibition percent to the concentration of inhibitor [I] in the assay in equation 1 below, to solve for the IC50.
Inhibition %=100[I]/([I]+[IC50]) equation 1
In general terms: Time-resolved FRET reads energy transfer from a long-lived donor to a nearby acceptor.

T1 sequence (P04629 33-796): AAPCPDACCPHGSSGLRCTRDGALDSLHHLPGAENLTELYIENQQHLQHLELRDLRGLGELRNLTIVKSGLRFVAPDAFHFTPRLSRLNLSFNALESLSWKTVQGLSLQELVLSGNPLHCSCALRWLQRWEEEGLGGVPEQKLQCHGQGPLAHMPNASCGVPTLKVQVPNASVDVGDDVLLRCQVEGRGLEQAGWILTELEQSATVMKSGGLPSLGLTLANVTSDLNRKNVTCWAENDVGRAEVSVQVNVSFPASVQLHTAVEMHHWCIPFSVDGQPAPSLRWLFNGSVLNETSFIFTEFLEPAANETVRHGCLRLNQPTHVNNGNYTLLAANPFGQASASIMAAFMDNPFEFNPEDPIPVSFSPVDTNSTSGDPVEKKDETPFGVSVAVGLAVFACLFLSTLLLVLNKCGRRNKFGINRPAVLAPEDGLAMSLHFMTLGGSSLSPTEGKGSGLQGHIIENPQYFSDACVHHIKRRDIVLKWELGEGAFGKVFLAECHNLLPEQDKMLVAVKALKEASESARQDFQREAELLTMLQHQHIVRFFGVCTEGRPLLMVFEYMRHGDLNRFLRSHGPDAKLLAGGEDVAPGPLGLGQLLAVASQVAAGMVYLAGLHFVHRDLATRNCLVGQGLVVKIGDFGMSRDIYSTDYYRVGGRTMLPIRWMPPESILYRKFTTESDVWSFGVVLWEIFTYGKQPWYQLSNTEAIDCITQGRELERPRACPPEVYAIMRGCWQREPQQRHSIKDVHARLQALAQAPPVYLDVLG

The molecule `CNC(=O)c1ccc(-c2cc(O[C@H](C)C(F)(F)F)c3c(N)n[nH]c3c2)cc1N1CCC(N2CCOCC2)CC1` [Example 59, 4-(3-amino-4-{[(2R)-1,1,1-trifluoropropan-2-yl]oxy}-1H-indazol-6-yl)-N-methyl-2-[4-(morpholin-4-yl)piperidin-1-yl]benzamide] gave an IC50 of 2.55 µM.

The molecule `CNC(=O)c1ccc(-c2cc(O[C@H](C)C(F)(F)F)c3c(N)n[nH]c3c2)cc1N1CCC(O)(c2ccccc2)CC1` [Example 60, 4-(3-amino-4-{[(2R)-1,1,1-trifluoropropan-2-yl]oxy}-1H-indazol-6-yl)-2-(4-hydroxy-4-phenylpiperidin-1-yl)-N-methylbenzamide] showed an IC50 of 0.223 µM.

With `CNC(=O)c1ccc(-c2cc(O[C@H](C)C(F)(F)F)c3c(N)n[nH]c3c2)cc1N1CCC(C2CCCCC2)CC1` [Example 61, 4-(3-amino-4-{[(2R)-1,1,1-trifluoropropan-2-yl]oxy}-1H-indazol-6-yl)-2-(4-cyclohexylpiperidin-1-yl)-N-methylbenzamide], inhibition was half-maximal at 0.135 µM (IC50).

Molecule `CN1CCC(Oc2cc(-c3ccc(C(=O)NC4CC4)c(N4CCN(c5ccccc5)CC4)c3)cc3[nH]nc(N)c23)CC1` [Example 62, 4-{3-amino-4-[(1-methylpiperidin-4-yl)oxy]-1H-indazol-6-yl}-N-cyclopropyl-2-(4-phenylpiperazin-1-yl)benzamide] showed a half-maximal inhibitory concentration (IC50) of 0.0671 µM.

Molecule `NC(=O)c1ccc(-c2cc(OC3CCNCC3)c3c(N)n[nH]c3c2)cc1N1CCN(c2ccccc2)CC1` [Example 63, 4-[3-amino-4-(piperidin-4-yloxy)-1H-indazol-6-yl]-2-(4-phenylpiperazin-1-yl)benzamide] yielded a half-inhibitory concentration (IC50) of 0.0253 µM.

In the case of `CC(=O)N1CCC(Oc2cc(-c3ccc(C(N)=O)c(N4CCN(c5ccccc5)CC4)c3)cc3[nH]nc(N)c23)CC1` [Example 64, 4-{4-[(1-acetylpiperidin-4-yl)oxy]-3-amino-1H-indazol-6-yl}-2-(4-phenylpiperazin-1-yl)benzamide], the 50% inhibitory concentration (IC50) was 0.00845 µM.

With `NC(=O)c1ccc(-c2cc(O[C@H]3CCOC3)c3c(N)n[nH]c3c2)cc1N1CCN(C2CC2)CC1` [Example 65, 4-{3-amino-4-[(3S)-tetrahydrofuran-3-yloxy]-1H-indazol-6-yl}-2-(4-cyclopropylpiperazin-1-yl)benzamide], half-maximal inhibition (IC50) was put at 0.173 µM.

Molecule `NC(=O)c1ccc(-c2cc(O[C@H]3CCOC3)c3c(N)n[nH]c3c2)cc1N1CCN(c2ccccc2)CC1` [Example 66, 4-{3-amino-4-[(3S)-tetrahydrofuran-3-yloxy]-1H-indazol-6-yl}-2-(4-phenylpiperazin-1-yl)benzamide] showed an IC50 of 0.00293 µM.

With `NC(=O)c1ccc(-c2cc(O[C@H]3CCOC3)c3c(N)n[nH]c3c2)cc1N1CCN(c2cccnc2)CC1` [Example 67, 4-{3-amino-4-[(3S)-tetrahydrofuran-3-yloxy]-1H-indazol-6-yl}-2-[4-(pyridin-3-yl)piperazin-1-yl]benzamide], it took 0.00797 µM to reach half-maximal inhibition (IC50).

Molecule `NC(=O)c1ccc(-c2cc(O[C@@H]3CCOC3)c3c(N)n[nH]c3c2)cc1N1CCN(c2cccnc2)CC1` [Example 68, 4-{3-amino-4-[(3R)-tetrahydrofuran-3-yloxy]-1H-indazol-6-yl}-2-[4-(pyridin-3-yl)piperazin-1-yl]benzamide] returned an IC50 of 0.00806 µM.

`NC(=O)c1ccc(-c2cc(OC3CCCC3)c3c(N)n[nH]c3c2)cc1N1CCN(c2ccccn2)CC1` [Example 75, 4-[3-amino-4-(cyclopentyloxy)-1H-indazol-6-yl]-2-[4-(pyridin-2-yl)piperazin-1-yl]benzamide] displayed a half-inhibitory concentration (IC50) of 0.00231 µM.

In turn, `NC(=O)c1ccc(-c2cc(OC3CCCC3)c3c(N)n[nH]c3c2)cc1N1CCC(c2ccccc2)CC1` [Example 76, 4-[3-amino-4-(cyclopentyloxy)-1H-indazol-6-yl]-2-(4-phenylpiperidin-1-yl)benzamide] gave a half-inhibitory concentration (IC50) of 0.0245 µM.

In turn, `NC(=O)c1ccc(-c2cc(OC3CCCC3)c3c(N)n[nH]c3c2)cc1N1CCN(C2CC2)CC1` [Example 78, 4-[3-amino-4-(cyclopentyloxy)-1H-indazol-6-yl]-2-(4-cyclopropylpiperazin-1-yl)benzamide] displayed an IC50 of 0.0201 µM.

Regarding `NC(=O)c1ccc(-c2cc(OC3CCCC3)c3c(N)n[nH]c3c2)cc1N1CCC(C(N)=O)CC1` [Example 79, 1-{5-[3-amino-4-(cyclopentyloxy)-1H-indazol-6-yl]-2-carbamoylphenyl}piperidine-4-carboxamide], the IC50 is 0.221 µM.

`NC(=O)c1ccc(-c2cc(OC3CCCC3)c3c(N)n[nH]c3c2)cc1N1CCN(C(=O)c2ccccc2)CC1` [Example 80, 4-[3-amino-4-(cyclopentyloxy)-1H-indazol-6-yl]-2-(4-benzoylpiperazin-1-yl)benzamide] gave an IC50 of 0.0175 µM.

`NC(=O)c1ccc(-c2cc(OC3CCCC3)c3c(N)n[nH]c3c2)cc1N1CCN(C(=O)C2CC2)CC1` [Example 81, 4-[3-amino-4-(cyclopentyloxy)-1H-indazol-6-yl]-2-[4-(cyclopropylcarbonyl)piperazin-1-yl]benzamide] came in with an IC50 of 0.0174 µM.

`NC(=O)c1ccc(-c2cc(OC3CCCC3)c3c(N)n[nH]c3c2)cc1N1CCN(C(=O)N2CCOCC2)CC1` [Example 82, 4-[3-amino-4-(cyclopentyloxy)-1H-indazol-6-yl]-2-[4-(morpholin-4-ylcarbonyl)piperazin-1-yl]benzamide]: the 50% inhibitory concentration (IC50) was 0.0223 µM.

In turn, `NC(=O)c1ccc(-c2ccc3c(N)n[nH]c3c2)cc1N1CCN(CC(=O)N2CCCC2)CC1` [Example 83, 4-(3-amino-1H-indazol-6-yl)-2-{4-[2-oxo-2-(pyrrolidin-1-yl)ethyl]piperazin-1-yl}benzamide] yielded a half-inhibitory concentration (IC50) of 8.33 µM.

As for `NC(=O)c1ccc(-c2ccc3c(N)n[nH]c3c2)cc1N1CCN(c2ccccc2)CC1` [Example 84, 4-(3-amino-1H-indazol-6-yl)-2-(4-phenylpiperazin-1-yl)benzamide], the IC50 amounted to 0.0243 µM.

The molecule `NC(=O)c1ccc(-c2ccc3c(N)n[nH]c3c2)cc1N1CCN(C2CCCCC2)CC1` [Example 85, 4-(3-amino-1H-indazol-6-yl)-2-(4-cyclohexylpiperazin-1-yl)benzamide] registered an IC50 of 2.24 µM.

The molecule `NC(=O)c1ccc(-c2ccc3c(N)n[nH]c3c2)cc1N1CCN(c2ccccn2)CC1` [Example 86, 4-(3-amino-1H-indazol-6-yl)-2-[4-(pyridin-2-yl)piperazin-1-yl]benzamide] had a concentration for half-maximal inhibition (IC50) of 0.0161 µM.

For the molecule `NC(=O)c1ccc(-c2ccc3c(N)n[nH]c3c2)cc1N1CCN(Cc2ccccc2)CC1` [Example 87, 4-(3-amino-1H-indazol-6-yl)-2-(4-benzylpiperazin-1-yl)benzamide], the midpoint of inhibition, the IC50, lay at 0.0433 µM.

Turning to `NC(=O)c1ccc(-c2ccc3c(N)n[nH]c3c2)cc1N1CCN(C2CC2)CC1` [Example 88, 4-(3-amino-1H-indazol-6-yl)-2-(4-cyclopropylpiperazin-1-yl)benzamide], the half-maximal inhibitory concentration (IC50) stood at 8.44 µM.

Regarding `NC(=O)c1ccc(-c2ccc3c(N)n[nH]c3c2)cc1N1CCN(CCN2CCOCC2)CC1` [Example 89, 4-(3-amino-1H-indazol-6-yl)-2-{4-[2-(morpholin-4-yl)ethyl]piperazin-1-yl}benzamide], the IC50 amounted to 13.5 µM.

Molecule `NC(=O)c1ccc(-c2ccc3c(N)n[nH]c3c2)cc1N1CCN(c2cccnc2)CC1` [Example 90, 4-(3-amino-1H-indazol-6-yl)-2-[4-(pyridin-3-yl)piperazin-1-yl]benzamide] returned an IC50 of 0.227 µM.
